Measured values as given in PubChem BioAssay (NCI).
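How tested: cells in 96-well plates exposed to compound for 48 hours at five concentrations. TGI: total growth inhibition.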

Experiments:
Assay in all cases: NCI tumour cell line growth inhibition, 48 h
PC-3 prostate = system: PC-3 prostate
K-562 leukemia = system: K-562 leukemia
U251 CNS = system: U251 CNS
CCRF-CEM leukemia = system: CCRF-CEM leukemia
MDA-N = system: MDA-N
TK-10 renal = system: TK-10 renal
NCI-H522 lung = system: NCI-H522 lung
SNB-19 CNS = system: SNB-19 CNS
NCI/ADR-RES ovarian = system: NCI/ADR-RES ovarian
T-47D breast = system: T-47D breast
DU-145 prostate = system: DU-145 prostate
SF-295 CNS = system: SF-295 CNS
A498 renal = system: A498 renal
LOX IMVI melanoma = system: LOX IMVI melanoma
NCI-H23 lung = system: NCI-H23 lung
786-0 renal = system: 786-0 renal
MDA-MB-435 = system: MDA-MB-435
HL-60(TB) leukemia = system: HL-60(TB) leukemia
HCT-116 colon = system: HCT-116 colon
RXF 393 renal = system: RXF 393 renal
IGROV1 ovarian = system: IGROV1 ovarian
SK-MEL-5 melanoma = system: SK-MEL-5 melanoma
NCI-H226 lung = system: NCI-H226 lung
SK-OV-3 ovarian = system: SK-OV-3 ovarian
CAKI-1 renal = system: CAKI-1 renal
HCC-2998 colon = system: HCC-2998 colon
SF-539 CNS = system: SF-539 CNS
HT29 colon = system: HT29 colon
OVCAR-5 ovarian = system: OVCAR-5 ovarian
NCI-H460 lung = system: NCI-H460 lung
HOP-92 NSCLC = system: HOP-92 NSCLC
RPMI-8226 leukemia = system: RPMI-8226 leukemia
HS 578T breast = system: HS 578T breast
SK-MEL-28 melanoma = system: SK-MEL-28 melanoma
M14 melanoma = system: M14 melanoma
UACC-62 melanoma = system: UACC-62 melanoma
MDA-MB-231 breast = system: MDA-MB-231 breast
SK-MEL-2 melanoma = system: SK-MEL-2 melanoma
OVCAR-3 ovarian = system: OVCAR-3 ovarian
HCT-15 colon = system: HCT-15 colon
SR leukemia = system: SR leukemia
MCF7 breast = system: MCF7 breast
KM12 colon = system: KM12 colon
OVCAR-8 ovarian = system: OVCAR-8 ovarian
EKVX NSCLC = system: EKVX NSCLC
SW-620 colon = system: SW-620 colon
UO-31 renal = system: UO-31 renal
SNB-75 CNS = system: SNB-75 CNS
MALME-3M melanoma = system: MALME-3M melanoma
MOLT-4 leukemia = system: MOLT-4 leukemia
HOP-62 NSCLC = system: HOP-62 NSCLC
SN12C renal = system: SN12C renal
BT-549 breast = system: BT-549 breast
UACC-257 melanoma = system: UACC-257 melanoma
COLO 205 colon = system: COLO 205 colon
A549 NSCLC = system: A549 NSCLC
SF-268 CNS = system: SF-268 CNS
ACHN renal = system: ACHN renal
OVCAR-4 ovarian = system: OVCAR-4 ovarian

## COc1ccccc1NC1=NCC(C)S1 (stereo unspecified)
PC-3 prostate
  TGI: > 100 µM
K-562 leukemia
  TGI: > 100 µM
U251 CNS
  TGI: > 100 µM
CCRF-CEM leukemia
  TGI: > 100 µM
MDA-N
  TGI: > 100 µM
TK-10 renal
  TGI: > 100 µM
NCI-H522 lung
  TGI: > 100 µM
SNB-19 CNS
  TGI: > 100 µM
NCI/ADR-RES ovarian
  TGI: > 100 µM
T-47D breast
  TGI: > 100 µM
DU-145 prostate
  TGI: > 100 µM
SF-295 CNS
  TGI: > 100 µM
A498 renal
  TGI: > 100 µM
LOX IMVI melanoma
  TGI: > 100 µM
NCI-H23 lung
  TGI: > 100 µM
786-0 renal
  TGI: > 100 µM
MDA-MB-435
  TGI: > 100 µM
HL-60(TB) leukemia
  TGI: > 100 µM
HCT-116 colon
  TGI: > 100 µM
RXF 393 renal
  TGI: > 100 µM
IGROV1 ovarian
  TGI: > 100 µM
SK-MEL-5 melanoma
  TGI: > 100 µM
NCI-H226 lung
  TGI: > 100 µM
SK-OV-3 ovarian
  TGI: > 100 µM
CAKI-1 renal
  TGI: > 100 µM
HCC-2998 colon
  TGI: > 100 µM
SF-539 CNS
  TGI: > 100 µM
HT29 colon
  TGI: > 100 µM
OVCAR-5 ovarian
  TGI: > 100 µM
NCI-H460 lung
  TGI: > 100 µM
HOP-92 NSCLC
  TGI: > 100 µM
RPMI-8226 leukemia
  TGI: > 100 µM
HS 578T breast
  TGI: > 100 µM
SK-MEL-28 melanoma
  TGI: > 100 µM
M14 melanoma
  TGI: > 100 µM
UACC-62 melanoma
  TGI: > 100 µM
MDA-MB-231 breast
  TGI: > 100 µM
SK-MEL-2 melanoma
  TGI: > 100 µM
OVCAR-3 ovarian
  TGI: > 100 µM
HCT-15 colon
  TGI: > 100 µM
SR leukemia
  TGI: > 100 µM
MCF7 breast
  TGI: > 100 µM
KM12 colon
  TGI: > 100 µM
OVCAR-8 ovarian
  TGI: > 100 µM
EKVX NSCLC
  TGI: > 100 µM
SW-620 colon
  TGI: > 100 µM
UO-31 renal
  TGI: > 100 µM
SNB-75 CNS
  TGI: > 100 µM
MALME-3M melanoma
  TGI: > 100 µM
MOLT-4 leukemia
  TGI: > 100 µM
HOP-62 NSCLC
  TGI: > 100 µM
SN12C renal
  TGI: > 100 µM
BT-549 breast
  TGI: > 100 µM
UACC-257 melanoma
  TGI: > 100 µM
COLO 205 colon
  TGI: > 100 µM
A549 NSCLC
  TGI: > 100 µM
SF-268 CNS
  TGI: > 100 µM
ACHN renal
  TGI: > 100 µM

## O=C(N1CCN(c2ccccc2)CC1)N(C(=O)C1(c2ccc(Cl)cc2)CCCC1)S(=O)(=O)c1ccccc1
PC-3 prostate
  TGI: 76.1 µM
K-562 leukemia
  TGI: > 100 µM
U251 CNS
  TGI: 62.4 µM
CCRF-CEM leukemia
  TGI: > 100 µM
MDA-N
  TGI: 51.2 µM
TK-10 renal
  TGI: > 100 µM
NCI-H522 lung
  TGI: 36.6 µM
SNB-19 CNS
  TGI: 72.2 µM
NCI/ADR-RES ovarian
  TGI: 70.8 µM
T-47D breast
  TGI: > 100 µM
DU-145 prostate
  TGI: > 100 µM
SF-295 CNS
  TGI: 70.6 µM
A498 renal
  TGI: 0.429 µM
LOX IMVI melanoma
  TGI: 37.9 µM
NCI-H23 lung
  TGI: 69.1 µM
786-0 renal
  TGI: > 100 µM
MDA-MB-435
  TGI: > 100 µM
HL-60(TB) leukemia
  TGI: 68.1 µM
HCT-116 colon
  TGI: 52.7 µM
RXF 393 renal
  TGI: > 100 µM
SK-MEL-5 melanoma
  TGI: 40.7 µM
NCI-H226 lung
  TGI: 99.3 µM
SK-OV-3 ovarian
  TGI: 82.9 µM
CAKI-1 renal
  TGI: 71.4 µM
HCC-2998 colon
  TGI: 58.5 µM
SF-539 CNS
  TGI: 49.7 µM
HT29 colon
  TGI: 75.8 µM
OVCAR-5 ovarian
  TGI: 65.7 µM
NCI-H460 lung
  TGI: > 100 µM
HOP-92 NSCLC
  TGI: 74.4 µM
RPMI-8226 leukemia
  TGI: > 100 µM
HS 578T breast
  TGI: 88.2 µM
SK-MEL-28 melanoma
  TGI: > 100 µM
M14 melanoma
  TGI: 47.3 µM
UACC-62 melanoma
  TGI: 51.7 µM
MDA-MB-231 breast
  TGI: 74.5 µM
OVCAR-4 ovarian
  TGI: 64.2 µM
SK-MEL-2 melanoma
  TGI: 38.9 µM
OVCAR-3 ovarian
  TGI: 82.6 µM
HCT-15 colon
  TGI: 80.1 µM
SR leukemia
  TGI: > 100 µM
MCF7 breast
  TGI: 74.9 µM
KM12 colon
  TGI: > 100 µM
OVCAR-8 ovarian
  TGI: 89.4 µM
EKVX NSCLC
  TGI: 58.2 µM
SW-620 colon
  TGI: > 100 µM
UO-31 renal
  TGI: 92.9 µM
SNB-75 CNS
  TGI: > 100 µM
MALME-3M melanoma
  TGI: 72.3 µM
MOLT-4 leukemia
  TGI: 59.1 µM
HOP-62 NSCLC
  TGI: 88.6 µM
SN12C renal
  TGI: 94.6 µM
BT-549 breast
  TGI: 80.2 µM
UACC-257 melanoma
  TGI: 88.1 µM
COLO 205 colon
  TGI: 60.3 µM
A549 NSCLC
  TGI: > 100 µM
SF-268 CNS
  TGI: > 100 µM
ACHN renal
  TGI: 45.6 µM
